Laboratory results as given in patent US20230034660A1, “PEPTIDES THAT ENHANCE NMDA RECEPTOR FUNCTION AND USE THEREOF” (University of Pittsburgh - Of the Commonwealth System of …, priority 2019, published 2023).

Tested on: presynaptic release of glutamate
Assay: Paired pulse ratio and coefficient of variance of AMPAR responses (release probability)
Format: cell-based, mice
Conditions: peptide-treated slices; for paired pulse ratio (PPR): AMPAR EPSCs, 50 millisecond interval; for coefficient of variance (CV): AMPAR responses
Procedure: For brain slice recordings, whole-cell recordings of NMDAR EPSCs in slice DCN cartwheel cells were obtained with micropipettes (3-6 MΩ) containing 128 mM Cs(CH3O3S), 4 mM MgCl2·6H2O, 4 mM Na2ATP, 10 mM HEPES, 0.3 mM Tris-GTP, 10 mM Tris-phosphocreatine, 1 mM CsEGTA, 1 mM, QX-314, 3 mM sodium ascorbate, pH=˜7.2, 300 mOsm. Cartwheel cells were identified by the presence of complex spikes (Zhang and Oertel, 1993; Golding and Oertel, 1997; Tzounopoulos et al., 2004) in cell-attached configuration before break-in or in response to current injections in current-clamp mode after break-in. NMDAR EPSCs were recorded in voltage clamp mode, at a holding potential of +40 mV, in the presence of DNQX (20 μM, AMPA and kainate receptor antagonist), SR95531. (20 μM, GABAAR antagonist), and strychnine (1 μM, GlyR antagonist), ZX1 (100 μM) was included in the pipette in experiments where noted. Whole-cell recordings of AMPAR EPSCs were obtained with micropipettes containing […], 4.5 mM MgCl2·6 H2O, 14 mM Tris-phosphocreatine, 9 mM HEPES, 0.1 mM EGTA, 4 mM Na2ATP, 0.3 mM Tris-GTP, 10 mM sucrose, pH=7.3, 295 mOsm. AMPA EPSCs were recorded in voltage clamp mode at a holding potential of −70 mV in the presence of SR9551. (20 μM, GABAAR antagonist) and strychnine (1 μM, GlyR antagonist). Both NMDAR and […] EPSCs were evoked using an Isoflex stimulator (A.M.P.I. 0.1 ms pulses) stimulating parallel fibers with voltage pulses through a theta glass electrode. Stimulus intensity was adjusted to a level that consistently evoked stable responses. For paired pulse experiments, inter-stimulus interval was 50 milliseconds. Once a stable response was established, ZX1 (100 μM) was added to the recording solution to measure the effect of zinc chelation on EPSCs. The series resistance was not compensated because the currents measured were relatively small, therefore there was minimum voltage clamp error. The series resistance was monitored during the recording by delivering −5 mV voltage steps for 50 milliseconds for each sweep. The peak current value (ΔIpeak) generated immediately after the step in the command potential was used to calculate series resistance (Rseries) using the following formula: Rseries=−5 mv/ΔIpeak. […] All values reported are animal-based values, in cases where multiple cells were recorded from the same animal preparation, the average of cells is presented (Lazic et al., 2018). […]
Next, it was evaluated whether a change in presynaptic release of glutamate could contribute to the observed actions of N2AZ on NMDAR-mediated synaptic currents. […] To measure PPR, two stimuli were given in rapid succession and the ratio of the second EPSC to the first was calculated. […]

Sequence	paired pulse ratio (PPR)	coefficient of variance (CV)
NDSYLRSSL [Peptide N2AZ]	2.29±0.07	0.26±0.031
SNLSDSYDR [scN2AZ, reference compound]	2.18±0.26	0.28±0.030
